Patent US20150080438A1, “6,7-Dihydro-5H-benzo[7]annulene derivatives, processes for their preparation, pharmaceutical products comprising them and their use for preparing medicaments” (Bayer Intellectual Property GmbH, priority 2011, published 2015)

Biological target: T1, oestrogen receptor (ER) (Homo sapiens, UniProt P03372)
T1 construct: These MVLN cells express, along with the functional oestrogen receptor (ER), a reporter construct; endogenous in cells; host or cells: MVLN cells (MCF7 derivative with ER-responsive luciferase reporter)
T1 sequence (P03372 1-595): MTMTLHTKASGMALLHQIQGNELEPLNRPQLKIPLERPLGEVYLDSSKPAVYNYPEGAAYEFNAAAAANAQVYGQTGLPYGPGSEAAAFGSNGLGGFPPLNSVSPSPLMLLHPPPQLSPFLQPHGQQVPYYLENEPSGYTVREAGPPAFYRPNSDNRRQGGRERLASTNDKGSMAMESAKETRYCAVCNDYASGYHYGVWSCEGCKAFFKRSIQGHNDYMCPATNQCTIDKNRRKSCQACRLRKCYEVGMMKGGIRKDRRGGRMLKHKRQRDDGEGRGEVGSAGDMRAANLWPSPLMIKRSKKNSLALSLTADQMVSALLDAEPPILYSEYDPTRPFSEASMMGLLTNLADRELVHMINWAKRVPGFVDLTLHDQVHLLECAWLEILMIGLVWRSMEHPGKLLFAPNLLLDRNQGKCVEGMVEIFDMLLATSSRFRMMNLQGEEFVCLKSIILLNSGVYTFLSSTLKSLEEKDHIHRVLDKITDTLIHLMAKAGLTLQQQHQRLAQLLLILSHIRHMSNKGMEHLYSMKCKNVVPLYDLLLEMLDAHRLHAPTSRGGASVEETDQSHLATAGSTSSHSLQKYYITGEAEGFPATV
Test: Anti-oestrogenic action in MVLN cells (inhibition of estradiol-induced luciferase, transactivation antagonism)
Type: cell-based
Conditions: inhibition of estradiol-induced luciferase activity, read-out: Anti-oestrogenic action in vitro: MVLN transactivation antagonism IC50
Excerpt: The anti-oestrogenic action of the claimed pharmacological compounds was investigated in so-called MVLN cells in vitro. MVLN cells are derivatives of the hormone-responsive MCF7 breast cancer cells known by a person skilled in the art. These MVLN cells express, along with the functional oestrogen receptor (ER), a reporter construct, which under ER-activation expresses luciferase. Determination of the activity of the induced luciferase permits a direct conclusion on the oestrogen properties of substances. To investigate the anti-oestrogenic properties of the pharmacological compounds, they were investigated in the presence of oestrogen for their potential for inhibiting the luciferase signal induced by estradiol.
The claimed pharmacological test substances were investigated in MVLN cells for their anti-oestrogenic potential, as described (see Table 2).

| IC50 [nM] | Compound |
| --- | --- |
| 9 | [O-][S+](CCCN(CCCO)CCCCCCC1=C(c2ccccc2)CCCc2cc(O)ccc21)CCC(F)(F)F (racemic) [Example 80, 9-{6-[(3-Hydroxypropyl){3-[(RS)-(3,3,3-trifluoropropyl)sulphinyl]propyl}amino]hexyl}-8-phenyl-6,7-dihydro-5H-benzo[7]annulen-3-ol] |
| 3 | CN(CCCCCCC1=C(c2ccc(F)c(O)c2)CCCc2cc(O)c(F)cc21)CCCS(=O)(=O)CCCC(F)(F)C(F)(F)F [Example 101, 2-Fluoro-8-(4-fluoro-3-hydroxyphenyl)-9-[6-(methyl{3-[(4,4,5,5,5-pentafluoropentyl)sulphonyl]propyl}amino)hexyl]-6,7-dihydro-5H-benzo[7]annulen-3-ol] |
| 146 | CN(CCCCCC1=C(c2cccnc2)CCCc2cc(O)ccc21)CCCSCCCC(F)(F)C(F)(F)F [Example 39, 9-[5-(Methyl{3-[(4,4,5,5,5-pentafluoropentyl)sulphanyl]propyl}amino)pentyl]-8-(3-pyridyl)-6,7-dihydro-5H-benzo[7]annulen-3-ol] |
| 110 | CN(CCCCCC1=C(c2cccnc2)CCCc2cc(O)ccc21)CCCS(=O)(=O)CCCC(F)(F)C(F)(F)F [Example 41, 9-[5-(Methyl{3-[(4,4,5,5,5-pentafluoropentyl)sulphonyl]propyl}amino)pentyl]-8-(3-pyridyl)-6,7-dihydro-5H-benzo[7]annulen-3-ol] |
| 20 | CN(CCCCCCC1=C(c2ccc(F)c(O)c2)CCCc2c1ccc(O)c2F)CCCS(=O)(=O)CCCC(F)(F)C(F)(F)F [Example 114, 4-Fluoro-8-(4-fluoro-3-hydroxyphenyl)-9-[6-(methyl{3-[(4,4,5,5,5-pentafluoropentyl)sulphonyl]propyl}amino)hexyl]-6,7-dihydro-5H-benzo[7]annulen-3-ol] |
| 8 | O=S(=O)(CCCN(CCCO)CCCCCCC1=C(c2cccc(O)c2)CCCc2cc(O)ccc21)CCC(F)(F)F [Example 99, 8-(3-Hydroxyphenyl)-9-{6-[(3-hydroxypropyl){3-[(3,3,3-trifluoropropyl)sulphonyl]propyl}amino]hexyl}-6,7-dihydro-5H-benzo[7]annulen-3-ol] |
| 5 | CN(CCCCCCC1=C(c2ccccc2)CCCc2cc(O)ccc21)CCCS(=O)(=O)CCCC(F)(F)F [Example 57, 9-[6-(Methyl{3-[(4,4,4-trifluorobutyl)sulphonyl]propyl}amino)hexyl]-8-phenyl-6,7-dihydro-5H-benzo[7]annulen-3-ol] |
| 9 | CCN(CCCCCCC1=C(c2cccc(O)c2)CCCc2cc(O)ccc21)CCC[S+]([O-])CCC(F)(F)F (racemic) [Example 94, 9-[6-(Ethyl{3-[(RS)-(3,3,3-trifluoropropyl)sulphinyl]propyl}amino)hexyl]-8-(3-hydroxyphenyl)-6,7-dihydro-5H-benzo[7]annulen-3-ol] |
| 16 | CN(CCCCCCC1=C(c2ccc(F)c(O)c2)CCCc2cc(O)c(F)cc21)CCC[S+]([O-])CCC(F)(F)F (racemic) [Example 125, 2-Fluoro-8-(4-fluoro-3-hydroxyphenyl)-9-[6-(methyl{3-[(RS)-(3,3,3-trifluoropropyl)sulphinyl]propyl}amino)hexyl]-6,7-dihydro-5H-benzo[7]annulen-3-ol] |
| 2 | [O-][S+](CCCN(CCO)CCCCCCC1=C(c2ccccc2)CCCc2cc(O)ccc21)CCCC(F)(F)C(F)(F)F (racemic) [Example 70, 9-{6-[(2-Hydroxyethyl){3-[(RS)-(4,4,5,5,5-pentafluoropentyl)sulphinyl]propyl}amino]hexyl}-8-phenyl-6,7-dihydro-5H-benzo[7]annulen-3-ol] |
| 11 | [O-][S+](CCCN(CCO)CCCCCCC1=C(c2ccccc2)CCCc2cc(O)ccc21)CCC(F)(F)F (racemic) [Example 78, 9-{6-[(2-Hydroxyethyl){3-[(RS)-(3,3,3-trifluoropropyl)sulphinyl]propyl}amino]hexyl}-8-phenyl-6,7-dihydro-5H-benzo[7]annulen-3-ol] |
| 2 | CN(CCCCCCC1=C(c2cccc(O)c2)CCCc2cc(O)ccc21)CCC[S+]([O-])CCC(F)(F)F (racemic) [Example 55, 8-(3-Hydroxyphenyl)-9-[6-(methyl{3-[(RS)-(3,3,3-trifluoropropyl)sulphinyl]propyl}amino)hexyl]-6,7-dihydro-5H-benzo[7]annulen-3-ol] |
| 6 | CCN(CCCCCCC1=C(c2cccc(O)c2)CCCc2cc(O)ccc21)CCCS(=O)(=O)CCC(F)(F)F [Example 65, 9-[6-(Ethyl{3-[(3,3,3-trifluoropropyl)sulphonyl]propyl}amino)hexyl]-8-(3-hydroxyphenyl)-6,7-dihydro-5H-benzo[7]annulen-3-ol] |
| 23 | CCN(CCCCCCC1=C(c2ccccc2)CCCc2cc(O)ccc21)CCC[S+]([O-])CCC(F)(F)F (racemic) [Example 76, 9-[6-(Ethyl{3-[(RS)-(3,3,3-trifluoropropyl)sulphinyl]propyl}amino)hexyl]-8-phenyl-6,7-dihydro-5H-benzo[7]annulen-3-ol] |
| 3 | CN(CCCCCC1=C(c2ccc(O)c(F)c2)CCCc2cc(O)ccc21)CCCSCCCC(F)(F)C(F)(F)F [Example 36, 8-(3-Fluoro-4-hydroxyphenyl)-9-[5-(methyl{3-[(4,4,5,5,5-pentafluoropentyl)sulphanyl]propyl}amino)pentyl]-6,7-dihydro-5H-benzo[7]annulen-3-ol] |
| 9 | CN(CCCCCCC1=C(c2ccc(F)c(O)c2)CCCc2c1ccc(O)c2F)CCCCS(=O)(=O)CCCC(F)(F)F [Example 118, 4-Fluoro-8-(4-fluoro-3-hydroxyphenyl)-9-[6-(methyl{4-[(4,4,4-trifluorobutyl)sulphonyl]butyl}amino)hexyl]-6,7-dihydro-5H-benzo[7]annulen-3-ol] |
| 7 | [O-][S+](CCCNCCCCCC1=C(c2ccccc2)CCCc2cc(O)ccc21)CCCC(F)(F)C(F)(F)F (racemic) [Example 50, 9-[5-({3-[(RS)-(4,4,5,5,5-Pentafluoropentyl)sulphinyl]propyl}amino)pentyl]-8-phenyl-6,7-dihydro-5H-benzo[7]annulen-3-ol] |
| 12 | CN(CCCCCCC1=C(c2ccccc2)CCCc2cc(O)ccc21)CCCS(=O)(=O)CCC(F)(F)C(F)(F)F [Example 62, 9-[6-(Methyl{3-[(3,3,4,4,4-pentafluorobutyl)sulphonyl]propyl}amino)hexyl]-8-phenyl-6,7-dihydro-5H-benzo[7]annulen-3-ol] |
| 2 | CN(CCCCCCC1=C(c2cccc(O)c2)CCCc2cc(O)ccc21)CCCCCC[S+]([O-])CCCC(F)(F)C(F)(F)F (racemic) [Example 18, 8-(3-Hydroxyphenyl)-9-[6-(methyl{6-[(RS)-(4,4,5,5,5-pentafluoropentyl)sulphinyl]hexyl}amino)hexyl]-6,7-dihydro-5H-benzo[7]annulen-3-ol] |
| 7 | CN(CCCCCCC1=C(c2ccc(F)c(O)c2)CCCc2c1ccc(O)c2F)CCCCS(=O)(=O)CCC(F)(F)F [Example 119, 4-Fluoro-8-(4-fluoro-3-hydroxyphenyl)-9-[6-(methyl{4-[(3,3,3-trifluoropropyl)sulphonyl]butyl}amino)hexyl]-6,7-dihydro-5H-benzo[7]annulen-3-ol] |
| 5 | CN(CCCCCCC1=C(c2ccc(F)c(O)c2)CCCc2cc(O)c(F)cc21)CCC[S+]([O-])CCCC(F)(F)C(F)(F)F (racemic) [Example 130, 2-Fluoro-8-(4-fluoro-3-hydroxyphenyl)-9-[6-(methyl{3-[(RS)-(4,4,5,5,5-pentafluoropentyl)sulphinyl]propyl}amino)hexyl]-6,7-dihydro-5H-benzo[7]annulen-3-ol] |
| 2 | CC(C)(O)CN(CCCCCCC1=C(c2cccc(O)c2)CCCc2cc(O)ccc21)CCC[S+]([O-])CCCC(F)(F)C(F)(F)F (racemic) [Example 89, 9-{6-[(2-Hydroxy-2-methylpropyl){3-[(RS)-(4,4,5,5,5-pentafluoropentyl)sulphinyl]propyl}amino]hexyl}-8-(3-hydroxyphenyl)-6,7-dihydro-5H-benzo[7]annulen-3-ol] |
| 1 | CCN(CCCCCCC1=C(c2cccc(O)c2)CCCc2cc(O)ccc21)CCC[S+]([O-])CCCC(F)(F)C(F)(F)F (racemic) [Example 86, 9-[6-(Ethyl{3-[(RS)-(4,4,5,5,5-pentafluoropentyl)sulphinyl]propyl}amino)hexyl]-8-(3-hydroxyphenyl)-6,7-dihydro-5H-benzo[7]annulen-3-ol] |
| 34 | CN(CCCCCC1=C(c2ccc(S(C)(=O)=O)cc2)CCCc2cc(O)ccc21)CCCS(=O)(=O)CCCC(F)(F)C(F)(F)F [Example 47, 8-(4-Mesylphenyl)-9-[5-(methyl{3-[(4,4,5,5,5-pentafluoropentyl)sulphonyl]propyl}amino)pentyl]-6,7-dihydro-5H-benzo[7]annulen-3-ol] |
